Test system: complex primary human cell systems
Experiment: BioMAP Diversity PLUS phenotypic panel
Type: cell-based
Conditions: hydroxychloroquine at 33 µM versus Pyronaridine at 3.3 µM
Description: Pyronaridine was profiled in the BioMAP® Diversity PLUS (BioSeek LLC, South San Francisco, CA) panel comprised of a well characterized set of complex primary human cell systems at 10, 3.3, 1.1, and 0.3 µM. Pyronaridine was tested across 12 BioMAP® Systems containing early passage primary human cells cultured alone or as cocultures and stimulated with various proinflammatory or immunomodulatory stimuli. […] A BioMAP activity profile was generated based on the levels of various readout parameters including cytokines or growth factors, expression of surface molecules, and cell proliferation. […]
Differentiating biomarkers are defined when one profile has a readout outside of the significance envelope with an effect size > 20% (|log10 ratio| > 0.1), and the readout for the other profile is either inside the envelope or in the opposite direction.

Compound: CCN(CCO)CCCC(C)Nc1ccnc2cc(Cl)ccc12 (stereo not shown) [HYDROXY-CHLOROQUINE HCQ, hydroxychloroquine]
- BioMAP Diversity PLUS profile, overlay comparison: noticeable similar pattern

— patent publication US20230301981A1, “TLR7/8 ANTAGONISTS AND USES THEREOF” (Merck Patent GmbH, priority 2020, published 2023)
